These compounds were tested against T1, Interleukin-1 receptor-associated kinase 4 (Homo sapiens, UniProt Q9NWZ3) (assay: IRAK4 Inhibition Assay).
T1 sequence (Q9NWZ3 whole entry): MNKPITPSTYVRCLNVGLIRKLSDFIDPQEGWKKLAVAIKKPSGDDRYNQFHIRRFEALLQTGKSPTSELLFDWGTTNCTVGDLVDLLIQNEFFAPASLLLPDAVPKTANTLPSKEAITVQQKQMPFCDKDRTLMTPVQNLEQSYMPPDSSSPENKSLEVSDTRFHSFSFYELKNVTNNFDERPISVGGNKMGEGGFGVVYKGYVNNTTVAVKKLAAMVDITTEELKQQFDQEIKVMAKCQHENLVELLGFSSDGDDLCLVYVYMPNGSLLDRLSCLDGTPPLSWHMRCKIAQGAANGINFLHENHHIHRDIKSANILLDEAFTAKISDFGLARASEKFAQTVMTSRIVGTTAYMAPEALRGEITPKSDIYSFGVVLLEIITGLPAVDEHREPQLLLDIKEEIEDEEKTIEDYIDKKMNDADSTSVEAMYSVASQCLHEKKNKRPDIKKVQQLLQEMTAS
Experimental: The assays were performed in U-bottom 384-well plates. The final assay volume was 30 μL prepared from 15 μL additions of enzyme and substrates (fluoresceinated peptide and ATP) and test compounds in assay buffer (20 mM HEPES pH 7.2, 10 mM MgCl2, 0.015% Brij 35 and 4 mM DTT). The reaction was initiated by the combination of IRAK4 with substrates and test compounds. The reaction mixture was incubated at room temperature for 60 min. and terminated by adding 45 μL of 35 mM EDTA to each sample. The reaction mixture was analyzed on the Caliper LABCHIP 3000 (Caliper, Hopkinton, MA) by electrophoretic separation of the fluorescent substrate and phosphorylated product. Inhibition data were calculated by comparison to no enzyme control reactions for 100% inhibition and vehicle-only reactions for 0% inhibition. The final concentrations of reagents in the assays are ATP, 500 μM; FL-IPTSPITTTYFFFKKK peptide 1.5 μM; IRAK4, 0.6 nM; and DMSO, 1.6%.

IC50 [nM] | SMILES
17.6 | CC(O)CCNC(=O)c1cnc2ccc(-c3cn[nH]c3)cc2c1NC1CC(F)(F)C1 (stereo not drawn) [US12492186, Example 54]
4.8 | CC(C)Nc1c(-c2cc(C3CCCCN3)no2)cnc2ccc(-c3cn[nH]c3)cc12 (stereo not drawn) [US12492186, Example 128]
15.2 | CC(O)CCNC(=O)c1cnc2ccc(-c3cn[nH]c3)cc2c1NCC(F)F (stereo not drawn) [US12492186, Example 65]

— BindingDB's records for patent US12492186 (Bristol Myers Squibb, 2025)
